Measurements from patent US20230167073A1 (Teijin Pharma Limited, priority 2020, published 2023).

Target: T1, Human TRPC6 (Homo sapiens, UniProt Q9Y210)
T1 construct: expressed in transfected cells
T1 sequence (Q9Y210 1-931): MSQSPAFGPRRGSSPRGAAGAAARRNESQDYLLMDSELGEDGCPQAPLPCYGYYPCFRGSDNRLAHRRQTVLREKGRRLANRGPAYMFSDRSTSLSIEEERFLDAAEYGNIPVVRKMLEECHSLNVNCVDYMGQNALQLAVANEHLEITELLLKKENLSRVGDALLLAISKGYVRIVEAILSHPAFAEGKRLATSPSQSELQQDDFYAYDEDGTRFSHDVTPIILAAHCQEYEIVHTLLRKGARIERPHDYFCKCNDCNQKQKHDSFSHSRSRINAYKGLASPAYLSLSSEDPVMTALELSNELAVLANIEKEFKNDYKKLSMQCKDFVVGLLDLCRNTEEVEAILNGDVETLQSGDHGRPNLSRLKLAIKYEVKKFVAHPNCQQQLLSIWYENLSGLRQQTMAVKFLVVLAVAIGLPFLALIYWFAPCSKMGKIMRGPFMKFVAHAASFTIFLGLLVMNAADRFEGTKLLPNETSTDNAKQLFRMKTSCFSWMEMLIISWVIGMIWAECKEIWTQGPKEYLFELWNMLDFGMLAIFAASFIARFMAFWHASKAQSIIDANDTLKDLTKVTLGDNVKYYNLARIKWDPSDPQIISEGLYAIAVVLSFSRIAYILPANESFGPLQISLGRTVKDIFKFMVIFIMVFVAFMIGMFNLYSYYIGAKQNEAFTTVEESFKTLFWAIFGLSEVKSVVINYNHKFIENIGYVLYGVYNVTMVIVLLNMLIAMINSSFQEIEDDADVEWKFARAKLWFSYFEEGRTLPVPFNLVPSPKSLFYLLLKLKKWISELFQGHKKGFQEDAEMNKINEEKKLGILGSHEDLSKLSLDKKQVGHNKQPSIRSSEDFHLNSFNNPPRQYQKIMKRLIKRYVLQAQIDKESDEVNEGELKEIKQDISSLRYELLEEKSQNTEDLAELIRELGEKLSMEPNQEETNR
Assay: Evaluation of TRPC6 channel inhibitory activity (1), FLIPR Calcium 5 Assay Kit, OAG stimulation (Compound Nos. 1-1293)
Format: cell-based
Settings: Human TRPC6 stably-expressing cells, OAG 30 μM, FLIPR Calcium 5 Assay Kit; read-out: Inhibitory activity (pIC50 class) (converted)
Procedure, shortened: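 Calcium influx read by FLIPR fluorescence in cells stably expressing human TRPC6, dye-loaded 30 min. Compounds preincubated 20 min, then OAG stimulation at 30 μM final. Inhibition fitted by four-parameter logistic regression to give pIC50, reported as +/++/+++ categories.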

IC50, > 1000 nM:
Cn1nc(C2CC2)cc1Oc1cc(C#N)ccc1-c1ccc(C(N)C(N)=O)cn1 (stereo not shown) [compound 504, 2-amino-2-[6-[4-cyano-2-(5-cyclopropyl-2-methylpyrazol-3-yl)oxyphenyl]pyridin-3-yl]acetamide]
Cn1nc(C2CC2)cc1Oc1cc(C#N)ccc1-c1ccc(C(N)c2nnn[nH]2)cn1 (stereo not shown) [compound 511, 4-[5-[amino(1H-tetrazol-5-yl)methyl]pyridin-2-yl]-3-(5-cyclopropyl-2-methylpyrazol-3-yl)oxybenzonitrile]
Cn1nc(-c2ccccc2)cc1Oc1cc(C#N)ccc1-c1ccc(C(N)C(N)=O)cn1 (stereo not shown) [compound 516, 2-amino-2-[6-[4-cyano-2-(2-methyl-5-phenylpyrazol-3-yl)oxyphenyl]pyridin-3-yl]acetamide]

IC50, 10 to 1000 nM:
Cn1nc(-c2ncccn2)cc1Oc1cc(C#N)ccc1-c1ccc(CCN)cn1 [compound 512, 4-[5-(2-aminoethyl)pyridin-2-yl]-3-(2-methyl-5-pyrimidin-2-ylpyrazol-3-yl)oxybenzonitrile]
COc1cccnc1-c1cc(Oc2cc(C#N)ccc2-c2ccc([C@H](O)CN)cn2)cc(C)n1 [compound 513, 4-[5-[(1S)-2-amino-1-hydroxyethyl]pyridin-2-yl]-3-[2-(3-methoxypyridin-2-yl)-6-methylpyridin-4-yl]oxybenzonitrile]
Cn1nc(C2CCOCC2)cc1Oc1cc(C#N)ccc1-c1ccc(C(N)CO)cn1 (stereo not shown) [compound 514, 4-[5-(1-amino-2-hydroxyethyl)pyridin-2-yl]-3-[2-methyl-5-(oxan-4-yl)pyrazol-3-yl]oxybenzonitrile]
Cn1nc(C2CC2)cc1Oc1cc(C#N)ccc1-c1cccn2c(CN)nnc12 [compound 515, 4-[3-(aminomethyl)-[1,2,4]triazolo[4,3-a]pyridin-8-yl]-3-(5-cyclopropyl-2-methylpyrazol-3-yl)oxybenzonitrile]
Cn1nc(C2CC2)cc1Oc1cc(C#N)ccc1-c1cc(C(O)CN)c(Cl)cn1 (stereo not shown) [compound 518, 4-[4-(2-amino-1-hydroxyethyl)-5-chloropyridin-2-yl]-3-(5-cyclopropyl-2-methylpyrazol-3-yl)oxybenzonitrile]
Cn1nc(C2CC2)cc1Oc1cc(C#N)ccc1-c1cc(C(O)CN)ccn1 (stereo not shown) [compound 519, 4-[4-(2-amino-1-hydroxyethyl)pyridin-2-yl]-3-(5-cyclopropyl-2-methylpyrazol-3-yl)oxybenzonitrile]
Cn1nc(C2CC2)cc1Oc1cc(C#N)ccc1-c1ncc(CN)s1 [compound 520, 4-[5-(aminomethyl)-1,3-thiazol-2-yl]-3-(5-cyclopropyl-2-methylpyrazol-3-yl)oxybenzonitrile]
Cc1nc(Oc2cc(C#N)ccc2-c2ccc([C@H](O)CN)cn2)cc(N2C[C@@H](C)O[C@@H](C)C2)n1 [compound 523, 4-[5-[(1S)-2-amino-1-hydroxyethyl]pyridin-2-yl]-3-[6-[(2S,6R)-2,6-dimethylmorpholin-4-yl]-2-methylpyrimidin-4-yl]oxybenzonitrile]
Cc1nc(Oc2cc(C#N)ccc2-c2ncc([C@H](O)CN)cn2)cc(N2C[C@@H](C)O[C@@H](C)C2)n1 [compound 524, 4-[5-[(1S)-2-amino-1-hydroxyethyl]pyrimidin-2-yl]-3-[6-[(2S,6R)-2,6-dimethylmorpholin-4-yl]-2-methylpyrimidin-4-yl]oxybenzonitrile]

IC50, < 10 nM:
Cc1cc(Oc2cc(C#N)ccc2-c2ccc([C@H](O)CN)cn2)cc(N2CCCC2)n1 [compound 498, 4-[5-[(1S)-2-amino-1-hydroxyethyl]pyridin-2-yl]-3-(2-methyl-6-pyrrolidin-1-ylpyridin-4-yl)oxybenzonitrile]
Cc1cc(Oc2cc(C#N)ccc2-c2ncc([C@H](O)CN)cn2)cc(N2CCCC2)n1 [compound 499, 4-[5-[(1S)-2-amino-1-hydroxyethyl]pyrimidin-2-yl]-3-(2-methyl-6-pyrrolidin-1-ylpyridin-4-yl)oxybenzonitrile]
Cc1cc(Oc2cc(C#N)ccc2-c2ccc([C@H](O)CN)cn2)cc(N2CCCCC2)n1 [compound 500, 4-[5-[(1S)-2-amino-1-hydroxyethyl]pyridin-2-yl]-3-(2-methyl-6-piperidin-1-ylpyridin-4-yl)oxybenzonitrile]
Cc1cc(Oc2cc(C#N)ccc2-c2ncc([C@H](O)CN)cn2)cc(N2CCCCC2)n1 [compound 501, 4-[5-[(1S)-2-amino-1-hydroxyethyl]pyrimidin-2-yl]-3-(2-methyl-6-piperidin-1-ylpyridin-4-yl)oxybenzonitrile]
Cc1cc(Oc2cc(C#N)ccc2-c2ccc([C@H](O)CN)cn2)cc(N2CC(F)C2)n1 [compound 502, 4-[5-[(1S)-2-amino-1-hydroxyethyl]pyridin-2-yl]-3-[2-(3-fluoroazetidin-1-yl)-6-methylpyridin-4-yl]oxybenzonitrile]
Cc1cc(Oc2cc(C#N)ccc2-c2ncc(CCN)cn2)cc(N2CC(F)C2)n1 [compound 503, 4-[5-(2-aminoethyl)pyrimidin-2-yl]-3-[2-(3-fluoroazetidin-1-yl)-6-methylpyridin-4-yl]oxybenzonitrile]
Cc1cc(Oc2cc(C#N)ccc2-c2ccc([C@H](O)CN)cn2)cc(N2C[C@@H](C)O[C@@H](C)C2)n1 [compound 505, 4-[5-[(1S)-2-amino-1-hydroxyethyl]pyridin-2-yl]-3-[2-[(2S,6R)-2,6-dimethylmorpholin-4-yl]-6-methylpyridin-4-yl]oxybenzonitrile]
Cc1cc(Oc2cc(C#N)ccc2-c2ncc([C@H](O)CN)cn2)cc(N2C[C@@H](C)O[C@@H](C)C2)n1 [compound 506, 4-[5-[(1S)-2-amino-1-hydroxyethyl]pyrimidin-2-yl]-3-[2-[(2S,6R)-2,6-dimethylmorpholin-4-yl]-6-methylpyridin-4-yl]oxybenzonitrile]
Cc1nc(Oc2cc(C#N)ccc2-c2ccc([C@H](O)CN)cn2)cc(N2CCCC2)n1 [compound 507, 4-[5-[(1S)-2-amino-1-hydroxyethyl]pyridin-2-yl]-3-(2-methyl-6-pyrrolidin-1-ylpyrimidin-4-yl)oxybenzonitrile]
Cc1nc(Oc2cc(C#N)ccc2-c2ncc([C@H](O)CN)cn2)cc(N2CCCC2)n1 [compound 508, 4-[5-[(1S)-2-amino-1-hydroxyethyl]pyrimidin-2-yl]-3-(2-methyl-6-pyrrolidin-1-ylpyrimidin-4-yl)oxybenzonitrile]
Cc1nc(Oc2cc(C#N)ccc2-c2ccc([C@H](O)CN)cn2)cc(N2CCCCC2)n1 [compound 509, 4-[5-[(1S)-2-amino-1-hydroxyethyl]pyridin-2-yl]-3-(2-methyl-6-piperidin-1-ylpyrimidin-4-yl)oxybenzonitrile]
Cc1nc(Oc2cc(C#N)ccc2-c2ncc([C@H](O)CN)cn2)cc(N2CCCCC2)n1 [compound 510, 4-[5-[(1S)-2-amino-1-hydroxyethyl]pyrimidin-2-yl]-3-(2-methyl-6-piperidin-1-ylpyrimidin-4-yl)oxybenzonitrile]
Cc1cc(Oc2cc(C#N)ccc2-c2ccc([C@@H](O)CN)cn2)cc(N2CCOCC2)n1 [compound 517, 4-[5-[(1R)-2-amino-1-hydroxyethyl]pyridin-2-yl]-3-(2-methyl-6-morpholin-4-ylpyridin-4-yl)oxybenzonitrile]
Cn1nc(-c2ccccn2)cc1Oc1cc(C#N)ccc1-c1ncc(CN)s1 [compound 521, 4-[5-(aminomethyl)-1,3-thiazol-2-yl]-3-(2-methyl-5-pyridin-2-ylpyrazol-3-yl)oxybenzonitrile]
Cn1nc(-c2ccccn2)cc1Oc1cc(C#N)ccc1-c1ccc(CN)n2ccnc12 [compound 522, 4-[5-(aminomethyl)imidazo[1,2-a]pyridin-8-yl]-3-(2-methyl-5-pyridin-2-ylpyrazol-3-yl)oxybenzonitrile]
Cc1nc(Oc2cc(C#N)ccc2-c2ccc([C@H](O)CN)cn2)cc(-c2ccccc2)n1 [compound 525, 4-[5-[(1S)-2-amino-1-hydroxyethyl]pyridin-2-yl]-3-(2-methyl-6-phenylpyrimidin-4-yl)oxybenzonitrile]
